This note sets out measurements from patent US10584111B2, “4-(3-cyanophenyl)-6-pyridinylpyrimidine mGlu5 modulators” (Heptares Therapeutics Limited, priority 2013, dated 2020).

The subject of this assay is CD-1 mice. The assay can be described thus: In vivo efficacy test - marble burying. Details: species or system mouse. To be noted: male CD-1 mice, 10 and 30 mg/kg po, dosed 30 min prior to test; doses tested 1, 3, 10 and 30 mg/kg; one-way ANOVA with Dunnett's post-hoc test.

Turning to `N#Cc1cc(Cl)cc(-c2cc(-c3ccc(F)cn3)ncn2)c1` [Example 17, 3-chloro-5-[6-(5-fluoropyridin-2-yl)pyrimidin-4-yl]benzonitrile], the “number of marbles buried versus vehicle group” value was “statistically significant decrease in the number of marbles buried”.
